Source: patent publication US5416118A, “Bicyclic amides as inhibitors of acyl-coenzyme A: cholesterol acyl transferase” (Schering Corporation, priority 1993, dated 1995)

Columns and labels:
[1] = test system: ACAT; experiment: ACAT Assay (in vitro); assay type: biochemical; conditions: dose = 10 μM; rat liver microsomes
Protocol: This assay measures the activity of ACAT by measuring the ACAT-mediated transfer of tritiated oleic acid from acyl-CoA to cholesterol to give labelled cholesterol oleate. Rat liver microsomes are used as the source of ACAT. Assays are performed in round bottom microtiterplates using a total incubation volume of 50 μL. Each incubation well receives 10 μL assay buffer (0.5M KHPO4, 10 μM dithiothreitol, pH 7.4), 7.5 μL of 40 mg/mL BSA (Bovine Serum Albumin) and 12.5 μg of microsomal protein. The test compound (in sufficient amount to bring the final concentration to from 0.1 to 25 μM), reference compound, or vehicle control is added and the final volume brought to 47 μL. The microtiterplate is then floated on the surface of a 37° C. water bath for fifteen minutes. Incubations are started by the addition of 3 μL ^3 H-acyl CoA (1 μCi/well, final concentration of 10 μM acyl CoA). The plate is then returned to the water bath for 15 minutes. The incubations are then terminated by application of 15 μL from each incubation to individual lanes on a thin layer plate (Silica Gel GF 20×20 cm). Standards are applied to several lanes so that the cholesterol ester band can be identified. After drying, the plates are eluted with 90:10:1 petroleum ether:ether:HOAc. The standards are visualized via iodine vapor, and the regions corresponding to cholesterol ester are scraped into 7 mL scintillation vials. 4 mL of scintillant are added to each vial, and the radioactivity quantified. Background count is determined by the boiled controls. Full activity is determined by activity in the presence of vehicle. The percent inhibition is calculated by subtracting the background from both control and test samples, and the test value is calculated as a percentage of the control. For IC50 determinations, the inhibition is plotted against drug doses on a log scale and the concentration at which 50% inhibition is obtained is determined.
(§1) Using the assay methods described above, the compounds of Examples 1-9 were tested for in vitro ACAT inhibitory activity and for the ability to lower the level of cholesteryl esters in vivo.

[2] = test system: cholesteryl esters; experiment: In Vivo Assay of Hypolipidemic Agents Using the Hyperlipidemic Hamster; conditions: Mesocricetus auratus, po, 168 h, oral gavage once daily, 7 days, versus control, read-out: % Reduction in cholesteryl esters; for change in vivo at 50 mg/kg: 50 mpk; for change in vivo at 10 mg/kg: 10 mpk; for change in vivo at 25 mg/kg: 25 mpk
Protocol: In Vivo Assay of Hypolipidemic Agents Using the Hyperlipidemic Hamster
Hamsters are separated into groups of six and given a control cholesterol diet (Pudna Chow #5001 containing 0.5% cholesterol) for seven days. Diet consumption is monitored to determine dietary cholesterol exposure in the face of test compounds. The animals are dosed with the test compound once daily beginning with the initiation of diet. Dosing is by oral gavage of 0.2 mL of corn oil alone (control group) or solution (or suspension) of test compound in corn oil. All animals moribund or in poor physical condition are euthanized. After seven days, the animals are anesthetized by […] of ketamine and sacrificed by decapitation. Blood is collected into vacutainer tubes containing EDTA for plasma lipid analysis and the liver excised for tissue lipid analysis. Data is reported as percent reduction of lipid versus control.
as §1

| Compound | ACAT % Inhibition [1] | change in vivo at 100 mg/kg ([2]; 100 mpk) | change in vivo at 50 mg/kg [2] | change in vivo at 10 mg/kg [2] | change in vivo at 25 mg/kg [2] |
| --- | --- | --- | --- | --- | --- |
| CCCCCCCC/C=C\CCCCCCCC(=O)N[C@H]1c2ccccc2OC[C@H]1c1ccccc1 (relative stereo) [Example 2N] | 85% | 0% |  |  |  |
| COc1ccc2c(c1)C[C@@H](c1ccccc1)[C@H]2NC(=O)C(c1ccccc1)c1ccccc1 (relative stereo) [Example 2R] | 75% |  | 0% |  |  |
| O=C(N[C@H]1c2ccccc2C[C@H]1c1ccccc1)C(c1ccccc1)c1ccccc1 (relative stereo) [Example 2S] | 83% |  | 16% |  |  |
| O=C(N[C@H]1c2ccccc2C[C@H]1c1ccc(O)cc1)C(c1ccccc1)c1ccccc1 (relative stereo) [Example 3, cis-N-[2-(4'-hydroxyphenyl)indanyl]-αphenylbenzeneacetamide] | 99% |  | -89% | -71% | -87.5% |
| O=C(N[C@@H]1c2ccccc2C[C@@H]1c1cccc(O)c1)C(c1ccccc1)c1ccccc1 (relative stereo) [Example 3B] | 97% |  | 0% |  |  |
| O=C(N[C@@H]1c2ccccc2CC[C@@H]1c1cccc(O)c1)C(c1ccccc1)c1ccccc1 (relative stereo) [Example 3C] | 77% |  | 0% |  |  |
| O=C(N[C@@H]1c2ccccc2CC[C@H]1c1cccc(O)c1)C(c1ccccc1)c1ccccc1 (relative stereo) [Example 3D] | 98% |  | 0% |  |  |
| O=C(N[C@@H]1c2ccccc2C[C@H]1c1ccc(O)cc1)C(c1ccccc1)c1ccccc1 (relative stereo) [Example 3E] | 99% |  | -52% |  |  |
| O=C(N[C@@H]1c2ccccc2CC[C@@H]1c1ccc(O)cc1)C(c1ccccc1)c1ccccc1 (relative stereo) [Example 3F] | 91% |  | -16% |  |  |
| O=C(N[C@@H]1c2ccccc2CC[C@H]1c1ccc(O)cc1)C(c1ccccc1)c1ccccc1 (relative stereo) [Example 3G] | 93% |  | -57% |  | -43% |
| CCCCCCCCCC(C)(C)C(=O)N[C@@H]1c2ccccc2CC[C@H]1c1ccc(O)cc1 (relative stereo) [Example 3H] | 86% |  | 0% |  |  |
| O=C(N[C@@H]1c2ccccc2CC[C@H]1c1ccc(O)cc1)N(c1ccccc1)c1ccccc1 (relative stereo) [Example 3I] | 99% |  | -16% |  |  |
| O=C(N[C@@H]1c2ccc(O)cc2C[C@@H]1c1ccccc1)C(c1ccccc1)c1ccccc1 (relative stereo) [Example 3K] | 54% |  | 0% |  |  |
| O=C(N[C@@H]1c2ccc(O)cc2CC[C@@H]1c1ccccc1)C(c1ccccc1)c1ccccc1 (relative stereo) [Example 3M] | 87% |  | -45% |  |  |
| O=C(N[C@@H]1c2ccc(O)cc2CC[C@H]1c1ccccc1)C(c1ccccc1)c1ccccc1 (relative stereo) [Example 3N] | 92% |  | 0% |  |  |
| O=C(N[C@@H]1c2cc(O)ccc2CC[C@@H]1c1ccccc1)C(c1ccccc1)c1ccccc1 (relative stereo) [Example 3P] | 75% |  | 0% |  |  |
| O=C(N[C@@H]1c2cc(O)ccc2CC[C@H]1c1ccccc1)C(c1ccccc1)c1ccccc1 (relative stereo) [Example 3Q] | 94% |  | -78% |  |  |
| O=C(N[C@@H]1c2cc(O)ccc2C[C@@H]1c1ccccc1)C(c1ccccc1)c1ccccc1 (relative stereo) [Example 3W] | 84% |  | 14% |  |  |
| CCCCCCCC/C=C\CCCCCCCC(=O)N[C@@H]1c2ccccc2CC[C@H]1c1ccc(O)cc1 (relative stereo) [Example 4, trans-N-[2-(4'-hydroxyphenyl)-1,2,3,4-tetrahydronaphth-1-yl]oleamide] | 94% |  | 0% |  |  |
| CCCCCCCC/C=C\CCCCCCCC(=O)N[C@@H]1c2ccccc2CC[C@@H]1c1ccc(O)cc1 (relative stereo) [Example 4A] | 81% |  | 0% |  |  |
| Nc1cccc([C@H]2Cc3ccccc3[C@H]2NC(=O)C(c2ccccc2)c2ccccc2)c1 (relative stereo) [Example 5A, cis-N-[2-(3'-aminophenyl)indanyl]-α-phenylbenzeneacetamide] | 95% |  |  | 0% |  |
| COc1ccc([C@H]2CCc3ccccc3[C@@H]2NC(=O)N(c2ccccc2)c2ccccc2)cc1 (relative stereo) [Example 6, trans-N'-[2-(4'-methoxyphenyl)-1,2,3,4-tetrahydronaphthalen-1-yl]-N,N-diphenylurea] | 97% |  | -16% |  |  |
| O=C(N[C@@H]1c2ccccc2C[C@@H]1c1ccc(O)c(Cl)c1)C(c1ccccc1)c1ccccc1 (relative stereo) [Example 8, cis-N-[2-(3'-chloro-4'-hydroxyphenyl)indanyl]-α-phenylbenzeneacetamid] | 99% |  | -40% |  |  |
| O=C(N[C@@H]1c2ccccc2C[C@@H]1c1cc(Cl)c(O)c(Cl)c1)C(c1ccccc1)c1ccccc1 (relative stereo) [Example 8A, cis-N-[2-(3',5'-dichloro-4'-hydroxyphenyl)indanyl]-α-phenylbenzeneacetamide] | 99% |  | -14% |  |  |
| O=C(N[C@@H]1c2ccccc2C[C@@H]1c1ccc(O)c(Br)c1)C(c1ccccc1)c1ccccc1 (single isomer, unassigned) [Example 7, (+)-cis-N-[2-(3'-bromo-4'-hydroxyphenyl]indanyl]-α-phenylbenzeneacetamide] | 100% |  | -40% |  |  |
| Cc1cc([C@H]2Cc3ccccc3[C@H]2NC(=O)C(c2ccccc2)c2ccccc2)ccc1O (single isomer, unassigned) [Example 9, (+)-cis-N-[2-(4'-hydroxy-3'-methylphenyl)indanyl]-α-phenylbenzeneacetamide] | 98% |  | -66% |  |  |
| Cc1cc([C@H]2Cc3ccccc3[C@H]2NC(=O)C(c2ccccc2)c2ccccc2)cc(C)c1O (single isomer, unassigned) [Example 9A, (+)-cis-N-[2-(3',5'-dimethyl-4'-hydroxyphenyl)indanyl]-α-phenylbenzeneacetamide] | 97% |  | -60% |  |  |
